{"source": "patent US6066628A", "about": "“Non-iron metalloporphyrins and methods of use” (Emory University, priority 1998, dated 2000)", "key": {"patients": {"tested_on": "patients", "conditions": "patients with compromised kidney function, high dosages; cited from earlier work"}, "F. menigosepticum": {"tested_on": "F. menigosepticum", "assay": "Disc diffusion sensitivity test", "format": "cell-based, Flavobacterium meningosepticum"}, "Staphylococcus xylolus": {"tested_on": "Staphylococcus xylolus", "assay": "Disc diffusion sensitivity test", "format": "cell-based", "conditions": "50 μg disc"}, "S. pyogenes A": {"tested_on": "S. pyogenes A", "assay": "Disc diffusion sensitivity test", "format": "cell-based, Streptococcus pyogenes", "conditions": "disc ~50 μg MP"}, "P. mirabills": {"tested_on": "P. mirabills", "assay": "Disc diffusion sensitivity test", "format": "cell-based, Proteus mirabilis"}, "M. smegmatis [1]": {"tested_on": "M. smegmatis", "assay": "Disc diffusion sensitivity test", "format": "cell-based, Mycobacterium smegmatis", "conditions": "disc ~50 μg MP"}, "Y. enterocolitica [2]": {"tested_on": "Y. enterocolitica", "assay": "Disc diffusion sensitivity test", "format": "cell-based", "conditions": "disc ~50 μg MP"}, "S. crevisieae": {"tested_on": "S. crevisieae", "assay": "Disc diffusion sensitivity test", "format": "cell-based, Saccharomyces cerevisiae", "conditions": "S. cerevisiae; disc ~50 μg MP"}, "E. aerogenes": {"tested_on": "E. aerogenes", "assay": "Disc diffusion sensitivity test", "format": "cell-based, Enterobacter aerogenes"}, "E. coli [3]": {"tested_on": "E. coli", "format": "cell-based, Escherichia coli", "conditions": "E. coli DH-5 alpha hemA (Table 6)"}, "Staphylococcus carnosus": {"tested_on": "Staphylococcus carnosus", "assay": "Disc diffusion sensitivity test", "format": "cell-based", "conditions": "50 μg disc"}, "C. freundii": {"tested_on": "C. freundii", "assay": "Disc diffusion sensitivity test", "format": "cell-based, Citrobacter freundii"}, "Y. enterocolitica [4]": {"tested_on": "Y. enterocolitica", "assay": "microbe, parasite or virus in culture", "format": "cell-based"}, "S. marcescens": {"tested_on": "S. marcescens", "assay": "Disc diffusion sensitivity test", "format": "cell-based, Serratia marcescens"}, "E. coli [5]": {"tested_on": "E. coli", "assay": "Disc diffusion sensitivity test", "format": "cell-based, Escherichia coli"}, "Neisseria meningitidis": {"tested_on": "Neisseria meningitidis", "assay": "Minimal inhibitory concentration", "format": "cell-based"}, "N. meningitidis": {"tested_on": "N. meningitidis", "assay": "Disc diffusion sensitivity test", "format": "cell-based", "conditions": "disc ~50 μg MP"}, "M tuber. H37Rv": {"tested_on": "M tuber. H37Rv", "assay": "Disc diffusion sensitivity test", "format": "cell-based, Mycobacterium tuberculosis", "conditions": "disc ~50 μg MP"}, "B. subtilis": {"tested_on": "B. subtilis", "assay": "Disc diffusion sensitivity test", "format": "cell-based, Bacillus subtilis", "conditions": "B. subtilis; disc ~50 μg MP"}, "M. bovis": {"tested_on": "M. bovis", "format": "cell-based, Mycobacterium bovis", "conditions": "disc ~50 μg MP"}, "K. oxytoca": {"tested_on": "K. oxytoca", "assay": "Disc diffusion sensitivity test", "format": "cell-based, Klebsiella oxytoca"}, "[6]": {"tested_on": "Streptococcus pyogenes JRS4", "format": "cell-based"}, "Ps. aeruginosa": {"tested_on": "Ps. aeruginosa", "assay": "Disc diffusion sensitivity test", "format": "cell-based, Pseudomonas aeruginosa", "conditions": "disc ~50 μg MP"}, "S. aureus [7]": {"tested_on": "S. aureus", "format": "cell-based, Staphylococcus aureus"}, "M. smegmatis [8]": {"tested_on": "M. smegmatis", "format": "cell-based, Mycobacterium smegmatis", "conditions": "for antibacterial activity: M. smegmatis"}, "K. pneumoniae": {"tested_on": "K. pneumoniae", "assay": "Disc diffusion sensitivity test", "format": "cell-based, Klebsiella pneumoniae"}, "Bacillus subtilis": {"tested_on": "Bacillus subtilis", "assay": "Minimal inhibitory concentration", "format": "cell-based"}, "[9]": {"tested_on": "Mycobacterium bovis (BCG)", "format": "cell-based"}, "E. faecalis": {"tested_on": "E. faecalis", "assay": "Disc diffusion sensitivity test", "format": "cell-based, Enterococcus faecalis", "conditions": "disc ~50 μg MP"}, "Y. pseudotuberculosis": {"tested_on": "Y. pseudotuberculosis", "format": "cell-based"}, "M tuber. H37Pa": {"tested_on": "M tuber. H37Pa", "assay": "Disc diffusion sensitivity test", "format": "cell-based, Mycobacterium tuberculosis", "conditions": "disc ~50 μg MP"}, "E. coli EB53 (hemPR^+)": {"tested_on": "E. coli EB53 (hemPR^+)", "assay": "Growth inhibition on Nutrient Broth Dipyridyl plates", "conditions": "NBD 0.1 mM plates"}, "S. aureus [10]": {"tested_on": "S. aureus", "assay": "Disc diffusion sensitivity test", "format": "cell-based, Staphylococcus aureus"}, "[11]": {"tested_on": "mammalian cells in culture", "assay": "Cytotoxicity in eukaryotic cell cultures", "format": "cell-based", "conditions": "human cells in culture"}}, "note": "Values joined by “and” are separate entries in the source; they are usually repeats but may differ in a detail not shown here. Equal entries are not always repeated. Where two headings read alike, the source gives them in different places.", "data": [{"smiles": "O=[N+]([O-])[O-].O=[N+]([O-])[O-].O=[N+]([O-])[O-].[Ga+3]", "note": "[gallium nitrate, Gallium nitrate]", "values": [{"measurement": "major complication of treatment", "setting": "patients", "result": "Reversible nephrotoxicity"}]}, {"smiles": "C=CC1=C(C)c2cc3[n-]c(cc4[n-]c(cc5nc(cc1n2)C(C)=C5C=C)c(C)c4CCC(=O)[O-])c(CCC(=O)[O-])c3C.[H+].[H+].[Mn+2]", "note": "[Mn-PPIX, Manganese protoporphyrin IX]", "values": [{"measurement": "diameter (mm) of the inhibition zone", "setting": "F. menigosepticum; F. meningosepticum, disc ~50 μg MP", "result": 17, "unit": "mm"}, {"measurement": "sensitive strains / strains tested (inhibition zones larger or equal 20 mm)", "setting": "F. menigosepticum; Flavobacterium meningosepticum, 50 μg disc", "result": "1/1"}, {"measurement": "sensitive strains / strains tested (inhibition zones larger or equal 20 mm)", "setting": "Staphylococcus xylolus", "result": "1/1"}, {"measurement": "diameter (mm) of the inhibition zone", "setting": "S. pyogenes A", "result": "-"}, {"measurement": "diameter (mm) of the inhibition zone", "setting": "P. mirabills; P. mirabilis, disc ~50 μg MP", "result": 22, "unit": "mm"}, {"measurement": "sensitive strains / strains tested (inhibition zones larger or equal 20 mm)", "setting": "P. mirabills; Proteus mirabilis, 50 μg disc", "result": "2/2"}, {"measurement": "diameter (mm) of the inhibition zone", "setting": "M. smegmatis [1]", "result": 25, "unit": "mm"}, {"measurement": "diameter (mm) of the inhibition zone", "setting": "Y. enterocolitica [2]", "result": 30, "unit": "mm"}, {"measurement": "diameter (mm) of the inhibition zone", "setting": "S. crevisieae", "result": "-"}, {"measurement": "diameter (mm) of the inhibition zone", "setting": "E. aerogenes; E. aerogenes, disc ~50 μg MP", "result": "-"}, {"measurement": "sensitive strains / strains tested (inhibition zones larger or equal 20 mm)", "setting": "E. aerogenes; Enterobacter aerogenes, 50 μg disc", "result": "1/1"}, {"measurement": "MIC", "setting": "E. coli [3]", "result": "> 10", "unit": "µg/mL"}, {"measurement": "sensitive strains / strains tested (inhibition zones larger or equal 20 mm)", "setting": "Staphylococcus carnosus", "result": "1/1"}, {"measurement": "diameter (mm) of the inhibition zone", "setting": "C. freundii; C. freundii, disc ~50 μg MP", "result": 22, "unit": "mm"}, {"measurement": "sensitive strains / strains tested (inhibition zones larger or equal 20 mm)", "setting": "C. freundii; Citrobacter freundii, 50 μg disc", "result": "4/4"}, {"measurement": "Minimal inhibitory concentration (MIC)", "setting": "Y. enterocolitica [4]", "result": 0.4}, {"measurement": "antibacterial activity", "setting": "Y. enterocolitica [4]", "result": "inhibitory"}, {"measurement": "diameter (mm) of the inhibition zone", "setting": "S. marcescens; S. marcescens, disc ~50 μg MP", "result": "-"}, {"measurement": "sensitive strains / strains tested (inhibition zones larger or equal 20 mm)", "setting": "S. marcescens; Serratia marcescens, 50 μg disc", "result": "2/3"}, {"measurement": "diameter (mm) of the inhibition zone", "setting": "E. coli [5]; E. coli, disc ~50 μg MP", "result": "-"}, {"measurement": "sensitive strains / strains tested (inhibition zones larger or equal 20 mm)", "setting": "E. coli [5]; Escherichia coli, 50 μg disc", "result": "16/18"}, {"measurement": "MIC", "setting": "Neisseria meningitidis; N. meningitidis IR1072, 20 to 24 hours (Table 5)", "result": 2, "unit": "µg/mL"}, {"measurement": "MIC", "setting": "Neisseria meningitidis; Neisseria meningitidis (Table 4)", "result": 2, "unit": "µg/mL"}, {"measurement": "diameter (mm) of the inhibition zone", "setting": "N. meningitidis", "result": 18, "unit": "mm"}, {"measurement": "diameter (mm) of the inhibition zone", "setting": "M tuber. H37Rv", "result": "-"}, {"measurement": "diameter (mm) of the inhibition zone", "setting": "B. subtilis", "result": 25, "unit": "mm"}, {"measurement": "diameter (mm) of the inhibition zone", "setting": "M. bovis", "result": 35, "unit": "mm"}, {"measurement": "diameter (mm) of the inhibition zone", "setting": "K. oxytoca; K. oxytoca, disc ~50 μg MP", "result": "-"}, {"measurement": "sensitive strains / strains tested (inhibition zones larger or equal 20 mm)", "setting": "K. oxytoca; Klebsiella oxytoca, 50 μg disc", "result": "1/1"}, {"measurement": "sensitivity", "setting": "[6]; S. pyogenes", "result": "resistant"}, {"measurement": "MIC", "setting": "[6]; S. pyogenes JRS4 (Table 4)", "result": "> 4", "unit": "µg/mL"}, {"measurement": "MIC", "setting": "[6]; S. pyogenes JRS4, 20 to 24 hours (Table 5)", "result": "> 4", "unit": "µg/mL"}, {"measurement": "diameter (mm) of the inhibition zone", "setting": "Ps. aeruginosa", "result": "-"}, {"measurement": "MIC", "setting": "S. aureus [7]; S. aureus 8325-4 (Table 4)", "result": 1, "unit": "µg/mL"}, {"measurement": "MIC", "setting": "S. aureus [7]; S. aureus 8325-4 (Table 6), in µg/mL", "result": 3}, {"measurement": "MIC", "setting": "S. aureus [7]; S. aureus 8325-4, 20 to 24 hours (Table 5)", "result": 3, "unit": "µg/mL"}, {"measurement": "Minimal inhibitory concentration (MIC)", "setting": "S. aureus [7]; methicillin-resistant S. aureus IR219, Nutrient broth (Table 2)", "result": 3.2, "unit": "µg/mL"}, {"measurement": "antibacterial activity", "setting": "M. smegmatis [8]", "result": "inhibitory"}, {"measurement": "MIC", "setting": "M. smegmatis [8]; M. smegmatis LR222 (Table 4)", "result": 0.5, "unit": "µg/mL"}, {"measurement": "Minimal inhibitory concentration (MIC)", "setting": "M. smegmatis [8]; M. smegmatis LR222, LB + Tween 80 (Table 2)", "result": 0.8, "unit": "µg/mL"}, {"measurement": "diameter (mm) of the inhibition zone", "setting": "K. pneumoniae; K. pneumoniae, disc ~50 μg MP", "result": "-"}, {"measurement": "sensitive strains / strains tested (inhibition zones larger or equal 20 mm)", "setting": "K. pneumoniae; Klebsiella pneumoniae, 50 μg disc", "result": "9/13"}, {"measurement": "MIC", "setting": "Bacillus subtilis; B. subtilis 3G18, 20 to 24 hours (Table 5)", "result": 1, "unit": "µg/mL"}, {"measurement": "MIC", "setting": "Bacillus subtilis; Bacillus subtilis (Table 4)", "result": 1, "unit": "µg/mL"}, {"measurement": "MIC", "setting": "[9]; M. bovis (BCG) (Table 4)", "result": 0.8, "unit": "µg/mL"}, {"measurement": "MIC", "setting": "[9]; M. bovis (BCG), two weeks (Table 5)", "result": 0.8, "unit": "µg/mL"}, {"measurement": "diameter (mm) of the inhibition zone", "setting": "E. faecalis", "result": "-"}, {"measurement": "MIC", "setting": "Y. pseudotuberculosis; Y. pseudotuberculosis YP66 (Table 4)", "result": "< 0.1", "unit": "µg/mL"}, {"measurement": "MIC", "setting": "Y. pseudotuberculosis; Y. pseudotuberculosis YP66 (Table 6), in µg/mL", "result": "1-2"}, {"measurement": "MIC", "setting": "Y. pseudotuberculosis; Y. pseudotuberculosis, iron restricted NBD 0.1 mM, 20 to 24 hours (Table 5)", "result": "1 to 2", "unit": "µg/mL"}, {"measurement": "diameter (mm) of the inhibition zone", "setting": "M tuber. H37Pa", "result": "-"}, {"measurement": "inhibition of growth", "setting": "E. coli EB53 (hemPR^+)", "result": "inhibited growth"}, {"measurement": "diameter (mm) of the inhibition zone", "setting": "S. aureus [10]; S. aureus, disc ~50 μg MP", "result": 23, "unit": "mm"}, {"measurement": "sensitive strains / strains tested (inhibition zones larger or equal 20 mm)", "setting": "S. aureus [10]; Staphylococcus aureus, 50 μg disc", "result": "9/9"}]}, {"smiles": "C=Cc1c(C)c2[n]3c1C=C1N=C(C=c4c(C)c(C(=O)O)c([n]4[Ga]3[Cl])=C(CC(=O)O)C3=NC(=C2)C(C)C3CCC(=O)O)C(CC)=C1C", "note": "(centres unmarked) [GA-Ce6, Ga-chlorin e6]", "values": [{"measurement": "antibacterial activity", "setting": "Y. enterocolitica [4]", "result": "significantly less active"}, {"measurement": "MIC", "setting": "Y. enterocolitica [4]; in µg/mL", "result": "5 and 10"}, {"measurement": "antibacterial activity", "setting": "S. aureus [7]; S. aureus", "result": "active"}, {"measurement": "MIC", "setting": "S. aureus [7]; S. aureus IR2419, dark (Table 10)", "result": 3.2, "unit": "µg/mL"}, {"measurement": "antibacterial activity", "setting": "M. smegmatis [8]", "result": "active"}, {"measurement": "MIC", "setting": "M. smegmatis [8]; M. smegmatis LR222, dark (Table 10)", "result": 0.4, "unit": "µg/mL"}, {"measurement": "cytotoxicity", "setting": "[11]", "result": "cytotoxic to human cells in culture"}]}]}
